{"source": "patent US20150246024A1", "about": "(priority 2012, published 2015)", "key": {"E. faecium - VRE TX0016": {"tested_on": "E. faecium - VRE TX0016", "assay": "microbe, parasite or virus in culture", "format": "cell-based", "conditions": "37° C., 18-22 hours, OD600"}, "[1]": {"tested_on": "S. aureus RN4220 colony isolates from gradient plates with 10-200 μM compound 1771", "assay": "Susceptibility of colony isolates from compound 1771 gradient plates", "format": "cell-based"}, "B. anthracis Sterne [2]": {"tested_on": "B. anthracis Sterne", "format": "cell-based"}, "[3]": {"tested_on": "LTA production in S. aureus", "assay": "Inhibition of LTA synthesis in S. aureus (immunoblot)"}, "[4]": {"molecular_target": "Recombinant S. aureus LtaSSA expressed in E. coli (Staphylococcus aureus, UniProt Q2G093)", "sequence (Q2G093 whole entry)": "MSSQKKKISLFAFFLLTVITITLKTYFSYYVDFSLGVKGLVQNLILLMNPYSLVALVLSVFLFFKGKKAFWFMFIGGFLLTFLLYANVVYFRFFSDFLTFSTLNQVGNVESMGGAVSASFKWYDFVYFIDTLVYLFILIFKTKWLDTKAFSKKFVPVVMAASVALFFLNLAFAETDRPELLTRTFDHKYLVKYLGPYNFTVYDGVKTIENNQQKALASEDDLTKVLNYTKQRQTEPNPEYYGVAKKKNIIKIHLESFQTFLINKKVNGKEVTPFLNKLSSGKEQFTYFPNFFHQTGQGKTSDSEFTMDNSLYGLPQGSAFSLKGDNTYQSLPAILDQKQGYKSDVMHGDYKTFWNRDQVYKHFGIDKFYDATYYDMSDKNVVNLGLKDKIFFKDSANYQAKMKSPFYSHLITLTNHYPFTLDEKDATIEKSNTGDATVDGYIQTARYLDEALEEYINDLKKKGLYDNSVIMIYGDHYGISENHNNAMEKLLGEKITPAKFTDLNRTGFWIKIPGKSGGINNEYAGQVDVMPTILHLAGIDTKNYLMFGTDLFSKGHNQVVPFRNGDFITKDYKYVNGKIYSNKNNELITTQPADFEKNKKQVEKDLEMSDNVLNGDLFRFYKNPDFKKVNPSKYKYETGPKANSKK", "format": "cell-based"}, "S. aureus RN4220 (MSSA)": {"tested_on": "S. aureus RN4220 (MSSA)", "assay": "microbe, parasite or virus in culture", "format": "cell-based", "conditions": "37° C., 18-22 hours, OD600"}, "B. anthracis Ames": {"tested_on": "B. anthracis Ames", "format": "cell-based", "conditions": "37° C., 18-22 hours, OD600"}, "E. faecalis - VRE V583": {"tested_on": "E. faecalis - VRE V583", "assay": "microbe, parasite or virus in culture", "format": "cell-based", "conditions": "37° C., 18-22 hours, OD600"}, "S. aureus RN4220 [5]": {"tested_on": "S. aureus RN4220", "assay": "Growth of S. aureus culture with sub-lethal compound (OD600)", "conditions": "until control culture OD600 1.0"}, "[6]": {"assay": "Half-life of compound in mice (blood, HPLC, mass spectrometry)", "format": "in vivo", "conditions": "32 mg/kg intraperitoneal", "description": "The therapeutic impact of compound 1771 during infection was examined. First, we evaluated the half-life of compound 1771 in vivo. Animals received intraperitoneal injections with 32 mg/kg of compound. The blood of three animals was drawn 1, 6 and 12 hours following intraperitoneal injections and the compound was extracted with methanol and chloroform, separated by reverse phase HPLC and subjected to mass spectrometry (data not shown). […] The conversion occurred between 3 and 6 hours. To evaluate, the efficacy of compound 1771, we used a mouse model of staphylococcal sepsis. Animals received intraperitoneal injections with 32 mg/kg of compound in 12-hour intervals. Treatment was initiated 24 hours prior to challenge and terminated at 72 hours post infection.\nTo examine the therapeutic value of compound 1771, we evaluated its half-life in mice. Animals received a single intraperitoneal injection of 32 mg/kg compound 1771. The blood of three animals was drawn 1, 6 and 12 hours following 1771 injection and serum samples were extracted with methanol and chloroform, separated by reversed-phase HPLC and subjected to mass spectrometry. […] Full conversion of compound 1771 into its two cleavage fragments occurred between 3 and 6 hours following injection. […]"}, "[7]": {"molecular_target": "extracellular S. aureus LtaS (eLtaS) (Staphylococcus aureus, UniProt Q2G093)", "sequence (Q2G093 218-646)": "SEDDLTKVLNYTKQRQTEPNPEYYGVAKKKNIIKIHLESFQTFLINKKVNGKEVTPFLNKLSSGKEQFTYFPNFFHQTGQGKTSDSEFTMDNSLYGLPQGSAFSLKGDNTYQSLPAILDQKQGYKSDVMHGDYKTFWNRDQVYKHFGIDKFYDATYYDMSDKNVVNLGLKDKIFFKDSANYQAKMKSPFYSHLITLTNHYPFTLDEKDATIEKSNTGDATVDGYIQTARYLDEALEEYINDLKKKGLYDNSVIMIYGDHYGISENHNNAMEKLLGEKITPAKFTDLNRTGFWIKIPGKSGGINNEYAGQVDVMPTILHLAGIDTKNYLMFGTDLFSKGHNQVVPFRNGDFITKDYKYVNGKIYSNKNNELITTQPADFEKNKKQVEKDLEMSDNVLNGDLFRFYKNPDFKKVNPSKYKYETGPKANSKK", "format": "binding", "conditions": "200 μM compound in mobile phase"}, "C. difficile R20291": {"tested_on": "C. difficile R20291", "assay": "Growth inhibition assay (MIC/IC50), 96-well", "format": "cell-based"}, "E. faecalis V583 [8]": {"tested_on": "E. faecalis V583", "format": "cell-based"}, "E. faecalis V583 [9]": {"tested_on": "E. faecalis V583", "format": "cell-based", "remark": "listed apart in the source"}, "S. aureus RN4220 [10]": {"tested_on": "S. aureus RN4220", "format": "cell-based"}, "E. faecium TX0016 [11]": {"tested_on": "E. faecium TX0016", "format": "cell-based"}, "C. perfringens SM101": {"tested_on": "C. perfringens SM101", "format": "cell-based", "conditions": "nitrogen atmosphere, 37° C., 18-22 hours"}, "B. anthracis Sterne [12]": {"tested_on": "B. anthracis Sterne", "format": "cell-based", "conditions": "5 μM compound, liquid culture"}, "C. difficile CD196": {"tested_on": "C. difficile CD196", "assay": "Growth inhibition assay (MIC/IC50), 96-well", "format": "cell-based"}, "B. anthracis Sterne [13]": {"tested_on": "B. anthracis Sterne", "assay": "microbe, parasite or virus in culture", "format": "cell-based", "conditions": "37° C., 18-22 hours, OD600"}, "C. difficile UK1": {"tested_on": "C. difficile UK1", "assay": "Growth inhibition assay (MIC/IC50), 96-well", "format": "cell-based"}, "S. aureus - MRSA USA300": {"tested_on": "S. aureus - MRSA USA300", "assay": "microbe, parasite or virus in culture", "format": "cell-based", "conditions": "37° C., 18-22 hours, OD600"}, "[14]": {"tested_on": "B. anthracis LtaS2BA expressed in E. coli", "format": "cell-based", "conditions": "200 μM compound"}, "B. cereus G9142": {"tested_on": "B. cereus G9142", "format": "cell-based"}, "E. coli": {"tested_on": "E. coli", "format": "cell-based"}, "S. aureus RN4220 [15]": {"tested_on": "S. aureus RN4220", "format": "cell-based", "remark": "listed apart in the source"}, "eLtaS": {"molecular_target": "eLtaS (Staphylococcus aureus, UniProt Q2G093)", "sequence (Q2G093 218-646)": "as above", "assay": "eLtaS-mediated cleavage of NBD-PGC6 to NBD-DAGC6", "format": "biochemical, S. aureus", "conditions": "100 μM compound, 6 hours, 37° C.", "description": "FIG. 10. Compound 1771 inhibits eLtaS binding to and cleavage of phosphatidylglycerol (PG) in vitro. Using NBD-PGC6 with 6 carbon acyl chains cleavage of 2 nmol substrate by 2 nmol eLtaS was detectable after 6 hours incubation at 37° C. Chloroform extraction separated non-hydrolyzed NBD-PGC6 (aqueous phase—AP) from the hydrophobic reaction product nitro-benzoxadiazole diacylglycerol (NBD-DAGC6), which segregated into the organic phase (OP). Both phases were analyzed by normal-phase HPLC on a diol column (solid line). Elution profiles were monitored by fluorescence (excitation at 460 nm, emission at 534 nm). Identity of peak fractions was confirmed by mass spectrometry. Addition of 100 μM compound 1771 blocked NBD-DAGC6 production by eLtaS (dashed line).\nWe used size exclusion HPLC with BioBasic SEC300 column equilibrated with 20 nmol nitro-benzoxadiazole glycerol-phosphate (NBD-GP) to measure binding of enzyme to substrate. Chromatography of 2 nmol eLtaS on BioBasic SEC300 column led to the elution of enzyme.NBD-GP complex and absorbance at 460 nm (FIG. 5). […]"}, "E. faecium TX0016 [16]": {"tested_on": "E. faecium TX0016", "format": "cell-based", "remark": "listed apart in the source"}, "C. difficile JIR8094": {"tested_on": "C. difficile JIR8094", "assay": "Growth inhibition assay (MIC/IC50), 96-well", "format": "cell-based", "conditions": "sigmoidal fit"}}, "note": "“And” between values parts separate entries of the source, which are not always exact repeats. Equal entries are not always repeated. “Also recorded” adds a separate entry of the source."}
{"smiles": "O=C(COC(=O)Cc1coc2ccc3ccccc3c12)Nc1nnc(-c2ccccc2)o1", "note": "[Compound 1771, 2-oxo-2-[(5-phenyl-1,3,4-oxadiazol-2-yl)amino]ethylnaphtho[2,1-b]furan-1-ylacetate]", "values": [{"measurement": "MIC", "setting": "E. faecium - VRE TX0016", "value": 50.0, "unit": "µM"}, {"measurement": "IC50", "setting": "E. faecium - VRE TX0016; sigmoidal fit, read-out: IC50", "value": 23.3, "unit": "µM"}, {"measurement": "IC50", "setting": "[1]; Isolate 1", "value": 8.7, "unit": "µM"}, {"measurement": "MIC", "setting": "[1]; Isolate 1", "value": 18.8, "unit": "µM"}, {"measurement": "IC50", "setting": "[1]; Isolate 2", "value": 9.2, "unit": "µM"}, {"measurement": "MIC", "setting": "[1]; Isolate 2", "value": 18.8, "unit": "µM"}, {"measurement": "IC50", "setting": "[1]; Isolate 3", "value": 12.2, "unit": "µM"}, {"measurement": "MIC", "setting": "[1]; Isolate 3", "value": 18.8, "unit": "µM"}, {"measurement": "Cell envelope diameter Δ (1771 vs mock)", "setting": "B. anthracis Sterne [2]; 8 μM compound", "value": "6.3 (±1.0) nm"}, {"measurement": "Cell envelope diameter", "setting": "B. anthracis Sterne [2]; BHI agar with 8 μM compound, mean of 124 (SEM)", "value": "46.8 (±0.7) nm"}, {"measurement": "LtaS immunoreactive signals", "setting": "[3]; 5 μM compound", "value": "slightly unstable; also recorded: reduced"}, {"measurement": "abundance of sortase A (SrtA), control", "setting": "[3]; 2 or 5 μM compound", "value": "remained unaffected; also recorded: not affected"}, {"measurement": "LTA production (immunoblot α-LTA)", "setting": "[3]; sub-lethal concentrations of compound", "value": "affect the production of LTA; also recorded: reduced the abundance of LTA"}, {"measurement": "production of LTA promoted by plasmid encoded LtaSSA", "setting": "[4]", "value": "abrogated"}, {"measurement": "MIC", "setting": "S. aureus RN4220 (MSSA)", "value": 12.5, "unit": "µM"}, {"measurement": "IC50", "setting": "S. aureus RN4220 (MSSA); sigmoidal fit, read-out: IC50", "value": "7.48 µM and 7.3 µM"}, {"measurement": "MIC", "setting": "B. anthracis Ames", "value": 12.5, "unit": "µM"}, {"measurement": "IC50", "setting": "B. anthracis Ames; sigmoidal fit", "value": 7.6, "unit": "µM"}, {"measurement": "MIC", "setting": "E. faecalis - VRE V583", "value": 50.0, "unit": "µM"}, {"measurement": "IC50", "setting": "E. faecalis - VRE V583; sigmoidal fit, read-out: IC50", "value": 27.3, "unit": "µM"}, {"measurement": "reduced growth of staphylococci", "setting": "S. aureus RN4220 [5]; 2 μM compound", "value": 50, "unit": "%"}, {"measurement": "reduced growth of staphylococci", "setting": "S. aureus RN4220 [5]; 5 μM compound", "value": 75, "unit": "%"}, {"measurement": "stability in mice", "setting": "[6]", "value": "unstable in mice with rapid loss of activity"}, {"measurement": "Co-elution of phosphatidylglycerol with eLtaS, reduction", "setting": "[7]", "value": "more than 95%"}, {"measurement": "elution of NBD-PG.eLtaS complex", "setting": "[7]", "value": "abolished"}, {"measurement": "MIC", "setting": "C. difficile R20291", "value": 6.2, "unit": "µM"}, {"measurement": "IC50", "setting": "C. difficile R20291; sigmoidal fit", "value": 5.3, "unit": "µM"}, {"measurement": "Cell envelope diameter", "setting": "E. faecalis V583 [8]", "value": "31.6 (±0.6) nm"}, {"measurement": "Cell envelope diameter Δ (1771 vs mock)", "setting": "E. faecalis V583 [8]", "value": "7.8 (±0.7) nm"}, {"measurement": "Cell clusters/all cocci", "setting": "E. faecalis V583 [9]", "value": "2/496"}, {"measurement": "Cell envelope diameter", "setting": "S. aureus RN4220 [10]", "value": "38.8 (±0.9) nm"}, {"measurement": "Cell envelope diameter Δ (1771 vs mock)", "setting": "S. aureus RN4220 [10]", "value": "7.5 (±1.1) nm"}, {"measurement": "Cell envelope diameter", "setting": "E. faecium TX0016 [11]", "value": "32.4 (±0.5) nm"}, {"measurement": "Cell envelope diameter Δ (1771 vs mock)", "setting": "E. faecium TX0016 [11]", "value": "9.6 (±0.6) nm"}, {"measurement": "MIC", "setting": "C. perfringens SM101", "value": 6.2, "unit": "µM"}, {"measurement": "IC50", "setting": "C. perfringens SM101; sigmoidal fit", "value": 2.5, "unit": "µM"}, {"measurement": "chain length of vegetative bacilli", "setting": "B. anthracis Sterne [12]", "value": "increased chain length; also recorded: formed longer chains"}, {"measurement": "MIC", "setting": "C. difficile CD196", "value": 6.5, "unit": "µM"}, {"measurement": "IC50", "setting": "C. difficile CD196; sigmoidal fit", "value": 4.3, "unit": "µM"}, {"measurement": "MIC", "setting": "B. anthracis Sterne [13]", "value": 12.5, "unit": "µM"}, {"measurement": "IC50", "setting": "B. anthracis Sterne [13]; sigmoidal fit, read-out: IC50", "value": "7.7 µM and 6.53 µM"}, {"measurement": "MIC", "setting": "C. difficile UK1", "value": 6.2, "unit": "µM"}, {"measurement": "IC50", "setting": "C. difficile UK1; sigmoidal fit", "value": 3.3, "unit": "µM"}, {"measurement": "MIC", "setting": "S. aureus - MRSA USA300", "value": 50.0, "unit": "µM"}, {"measurement": "IC50", "setting": "S. aureus - MRSA USA300; sigmoidal fit, read-out: IC50", "value": 14, "unit": "µM"}, {"measurement": "LTA production by LtaS2BA", "setting": "[14]", "value": "completely abolished; also recorded: abrogated"}, {"measurement": "IC50", "setting": "B. cereus G9142", "value": 10.7, "unit": "µM"}, {"measurement": "MIC", "setting": "B. cereus G9142", "value": 25.0, "unit": "µM"}, {"measurement": "growth of E. coli", "setting": "E. coli", "value": "not affected; also recorded: did not affect the growth"}, {"measurement": "Cell clusters/all cocci", "setting": "S. aureus RN4220 [15]", "value": "3/387"}, {"measurement": "NBD-DAGC6 production by eLtaS", "setting": "eLtaS", "value": "blocked; also recorded: inhibited"}, {"measurement": "Cell clusters/all cocci", "setting": "E. faecium TX0016 [16]", "value": "1/295"}, {"measurement": "IC50", "setting": "C. difficile JIR8094", "value": 8.2, "unit": "µM"}]}
